# Like-named read-outs stand apart in the source and are kept apart here.
# Tests used:
# [1] = tested on: collagen-induced platelet coagulation; settings: background art (Patent Document 1, Non-patent Document 5); read-out: IC50 value against collagen-induced platelet coagulation; cited from earlier work
# Cyclooxygenase-1 (COX-1) = target: T1, Cyclooxygenase-1 (COX-1) (Ovis aries, UniProt P05979); assay: COX Inhibitor Screening Assay Kit (Cayman), PGF2α by ELISA, COX-1; assay type: biochemical; settings: compound at 50 μm; relative to PGF2α produced without compound (100%)
# T1 construct: purchased Cayman Chemical Company 560101
# T1 sequence (P05979 25-600): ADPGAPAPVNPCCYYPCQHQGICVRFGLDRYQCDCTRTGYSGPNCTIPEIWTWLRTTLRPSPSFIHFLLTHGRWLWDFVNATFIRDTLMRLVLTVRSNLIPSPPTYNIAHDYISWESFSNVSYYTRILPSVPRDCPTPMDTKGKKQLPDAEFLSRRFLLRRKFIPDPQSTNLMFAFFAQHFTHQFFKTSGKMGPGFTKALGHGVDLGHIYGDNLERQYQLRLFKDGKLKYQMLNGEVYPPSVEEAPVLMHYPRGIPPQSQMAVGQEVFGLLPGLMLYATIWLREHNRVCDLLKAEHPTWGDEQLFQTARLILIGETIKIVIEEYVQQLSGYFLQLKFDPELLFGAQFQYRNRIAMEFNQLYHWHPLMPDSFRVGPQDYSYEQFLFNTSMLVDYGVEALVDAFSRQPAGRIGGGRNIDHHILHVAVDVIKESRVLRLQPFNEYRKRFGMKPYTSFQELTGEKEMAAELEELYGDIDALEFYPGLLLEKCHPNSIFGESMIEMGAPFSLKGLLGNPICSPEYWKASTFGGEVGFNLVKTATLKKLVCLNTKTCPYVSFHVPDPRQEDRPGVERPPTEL
# Procedure: (§1) Inhibitory activity against COX-1 and COX-2 of the compounds produced in the Examples was measured by using COX Inhibitor Screening Assay Kit (Catalog Nos. 560101 and 560121) purchased from Cayman Chemical Company.
# (§2) Before starting the measurement, reaction buffer, heme, arachidonic acid, SnCl2, EIA buffer, washing buffer, prostaglandin (PG) screening EIA standard, PG screening acetylcholine esterase (AchE), tracer (chromogenic enzyme HRP conjugate), and PC screening EIA antiserum were prepared ready for use.
# (§3) The reaction mixture containing the compound of the Examples (50 μM) and COX-1 or COX-2 was allowed to stand at 37° C. or 10 minutes, and after adding 10 μl of arachidonic acid, the solution was again allowed to stand at 37° C. for 2 minutes. After the reaction, the reaction was terminated by adding 50 μl of 1N-hydrochloric acid, and 100 μl solution of SnCl2 was added, and the reaction mixture was allowed to stand at room temperature for 5 minutes.
# (§4) 50 μl of antiserum (rabbit anti-PGF2α antibody) was placed in the wells of 96 well plate that had been coated with mouse anti-rabbit IgG and 50 μl of the 2000-fold diluted PGF2α-containing liquid described above and 50 μl of AchE tracer were added to the well in this order, and the mixture was allowed to stand at room temperature for 18 hours. The wells were washed 5 times with the washing buffer to remove an excessive AchE tracer, and 200 μl of Ellman reagent was added. After leaving the plate in a dark room for 60 minutes, absorbance was measured at 405 nm.
# (§5) A calibration curve was obtained by using the PG screening EIA standard, and the amount of PGF2α produced was determined from the absorption. Inhibitory rate at 50 μM of the compound of the Examples against COX-1 or COX-2 was calculated.
# (§6) It is to be noted that the inhibitory rate was calculated in relation to the amount of the PGF2α produced by the reaction liquid free from the compounds of the Examples, which was taken 100%.
# Cyclooxygenase-2 (COX-2) = target: T2, Cyclooxygenase-2 (COX-2) (Homo sapiens, UniProt P35354); assay: COX Inhibitor Screening Assay Kit (Cayman), PGF2α by ELISA, COX-2; assay type: biochemical; settings: compound at 50 μm; relative to PGF2α produced without compound (100%)
# T2 construct: purchased Cayman Chemical Company 560121
# T2 sequence (P35354 18-604): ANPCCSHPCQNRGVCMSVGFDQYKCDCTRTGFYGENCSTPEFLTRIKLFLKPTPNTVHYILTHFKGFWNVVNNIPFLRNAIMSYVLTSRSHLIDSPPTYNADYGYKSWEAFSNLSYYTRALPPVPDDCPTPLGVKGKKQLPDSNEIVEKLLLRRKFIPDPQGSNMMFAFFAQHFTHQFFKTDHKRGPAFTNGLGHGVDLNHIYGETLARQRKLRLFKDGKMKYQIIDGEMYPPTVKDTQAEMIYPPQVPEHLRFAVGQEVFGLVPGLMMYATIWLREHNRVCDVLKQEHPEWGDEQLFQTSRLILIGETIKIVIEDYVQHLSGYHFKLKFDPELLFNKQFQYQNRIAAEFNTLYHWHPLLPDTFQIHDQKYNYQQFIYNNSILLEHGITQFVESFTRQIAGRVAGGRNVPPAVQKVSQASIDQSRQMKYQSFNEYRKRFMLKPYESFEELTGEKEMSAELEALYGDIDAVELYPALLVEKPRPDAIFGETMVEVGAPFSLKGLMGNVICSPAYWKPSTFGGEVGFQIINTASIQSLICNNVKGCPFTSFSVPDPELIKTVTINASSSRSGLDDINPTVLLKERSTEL
# Procedure: as §1, §2, §3, §4, §5, §6
# [2] = tested on: collagen-induced platelet coagulation; assay: Inhibitory effect on collagen-induced platelet coagulation in platelet rich plasma; assay type: cell-based; settings: human platelet rich plasma, 37° C., coagulation induced with collagen; read-out: Inhibition of collagen-induced platelet coagulation, IC50
# Procedure: Human blood was collected by using 1/10 volume of 3.13% sodium citrate as an anticoagulant, and the blood was centrifuged at 180 g for 10 minutes to separate platelet rich plasma (PRP), which was the upper layer. After collecting the upper layer PRP, the remaining lower layer was centrifuged at 1600 g for 10 minutes, and platelet poor plasma (PPP) in the upper layer was collected. 1 μl solution of the compound of the Examples was added to 200 μl of the PRP, and after allowing the sample to stand at 37° C. for 2 minutes, 2 μl of collagen was added in order to induce platelet coagulation. Platelet coagulation rate was measured with PAM-12C (SSR Engineering).
Structure (SMILES),IC50 [1] [nM],Inhibitory effect against COX-1 at 50 μm (% inhibition) (Cyclooxygenase-1 (COX-1)),Inhibitory effect against COX-2 at 50 μm (% inhibition) (Cyclooxygenase-2 (COX-2)),IC50 [2] [nM]
CS(=O)(=O)c1ccc(-c2cc(C#N)nn2-c2ccc(F)cc2)cc1 [Compound (A)],5300,–,–,–
"CC(C)(C)NC(=O)c1cc(-c2ccc(CO)cn2)n(-c2cccnc2)n1 [Example 26, N-tert-Butyl-5-(5-hydroxymethyl-2-pyridyl)-1-(3-pyridyl)-1H-pyrazole-3-carboxamide]",–,5.5,8.2,65
"CC(C)(C)NC(=O)c1cc(-c2ccc(Cl)cn2)n(-c2cccnc2)n1 [Example 28, N-tert-Butyl-5-(5-chloro-2-pyridyl)-1-(3-pyridyl)-1H-pyrazole-3-carboxamide]",–,5.4,7.6,8.9
"COCC(C)(C)NC(=O)c1cc(-c2ccccn2)n(-c2ccc(OC)nn2)n1 [Example 40, N-(2-Methoxy-1,1-dimethylethyl)-1-(6-methoxy-3-pyridazinyl)-5-(2-pyridyl)-1H-pyrazole-3-carboxamide]",–,72,14.8,65
"COc1ccc(-n2nc(C(=O)NCC3CCCO3)cc2-c2ccccn2)cn1 (stereo not shown) [Example 44, N-(Tetrahydro-2-furanylmethyl)-1-(6-methoxy-3-pyridyl)-5-(2-pyridyl)-1H-pyrazole-3-carboxamide]",–,4.3,3.6,140
"COc1ccc(-n2nc(C(=O)NC3(C(N)=O)CCCC3)cc2-c2ccccn2)cn1 [Example 48, N-(1-Carbamoyl-1-cyclopentyl)-1-(6-methoxy-3-pyridyl)-5-(2-pyridyl)-1H-pyrazole-3-carboxamide]",–,3.6,8.7,190
"COc1ccc(-n2nc(C(=O)NC3CCCC3)cc2-c2ccccn2)nn1 [Example 56, N-Cyclopentyl-1-(6-methoxy-3-pyridazinyl)-5-(2-pyridyl)-1H-pyrazole-3-carboxamide]",–,−1.2,−1.7,92
"Cc1cnc(-c2cc(C(=O)NC(C)(C)C)nn2-c2cccnc2)cn1 [Example 65, N-tert-Butyl-5-(5-methyl-2-pyrazinyl)-1-(3-pyridyl)-1H-pyrazole-3-carboxamide]",–,11.6,−1.6,20

# Source: patent US20070219210A1, “Amidopyrazole Derivative” (Daiichi Pharmaceutical Co., LTD., priority 2003, published 2007)
